The text below walks through data of patent publication US8349828B2, “Azatricyclic antibiotic compounds” (Actelion Pharmaceuticals Ltd., priority 2008, dated 2013).

Converted amounts (≈) assume the structure as drawn.

The subject of one experiment is M. catarrhalis A894. The experiment in a line: MIC determination by microdilution in cation-adjusted Mueller-Hinton Broth (CLSI M7-A7). The experiment is classed as cell-based. To be noted: Moraxella catarrhalis, A894, microdilution method. How it is done: Minimal inhibitory concentrations (MICs, in mg/l) were determined in cation-adjusted Mueller-Hinton Broth by a microdilution method following the description given in “Methods for Dilution Antimicrobial Susceptibility Tests for Bacteria that Grow Aerobically”, Approved standard, 7th ed., Clinical and Laboratory Standards Institute (CLSI) Document M7-A7, Wayne, Pa., USA, 2006. All Example compounds were tested against several Gram-positive and Gram-negative bacteria.
Background: Dilution methods test growth across graded concentrations, often in twofold steps.
`O=C1COc2ccc(N3C[C@@H](CNC[C@@H]4Cc5c(F)ccc6ccc(=O)n4c56)OC3=O)cc2N1` [Example 16, (S)-9-fluoro-2-({[(R)-2-oxo-3-(3-oxo-3,4-dihydro-2H-benzo[1,4]oxazin-6-yl)-oxazolidin-5-ylmethyl]-amino}-methyl)-1,2-dihydro-pyrrolo[3,2,1-ij]quinolin-4-one]: it took 0.125 µg/mL (≈ 0.269 µM) to inhibit growth (MIC).

Regarding `O=C1CSc2ccc(N3C[C@@H](CCNC[C@H]4Cc5c(F)ccc6ccc(=O)n4c56)OC3=O)cc2N1` [Example 18, (R)-9-fluoro-2-({2-[(R)-2-oxo-3-(3-oxo-3,4-dihydro-2H-benzo[1,4]thiazin-6-yl)-oxazolidin-5-yl]-ethylamino}-methyl)-1,2-dihydropyrrolo[3,2,1-ij]quinolin-4-one], the minimum inhibitory concentration (MIC) (in general, the smallest concentration in the dilution series that meets the test's criterion for growth inhibition) was not above 0.063 µg/mL.

As for `O=C1CSc2ccc(N3C[C@H](CCNC[C@@H]4Cc5c(F)ccc6ccc(=O)n4c56)OC3=O)cc2N1` [Example 19, (S)-9-fluoro-2-({2-[(S)-2-oxo-3-(3-oxo-3,4-dihydro-2H-benzo[1,4]thiazin-6-yl)-oxazolidin-5-yl]-ethylamino}-methyl)-1,2-dihydropyrrolo[3,2,1-ij]quinolin-4-one], the MIC was not above 0.063 µg/mL.

As for `O=C1CSc2ccc(N3C[C@H](CCNC[C@H]4Cc5c(F)ccc6ccc(=O)n4c56)OC3=O)cc2N1` [Example 20, (R)-9-fluoro-2-({2-[(S)-2-oxo-3-(3-oxo-3,4-dihydro-2H-benzo[1,4]thiazin-6-yl)-oxazolidin-5-yl]-ethylamino}-methyl)-1,2-dihydropyrrolo[3,2,1-ij]quinolin-4-one], the MIC is not above 0.063 µg/mL.

In turn, `O=C1CSc2ccc(N3C[C@H](CCNC[C@@H]4Cc5cccc6ncc(=O)n4c56)OC3=O)cc2N1` [Example 29, (S)-5-({2-[(S)-2-oxo-3-(3-oxo-3,4-dihydro-2H-benzo[1,4]thiazin-6-yl)-oxazolidin-5-yl]-ethylamino}-methyl)-5,6-dihydro-pyrrolo[1,2,3-de]quinoxalin-3-one] displayed an MIC not above 0.063 µg/mL.

In turn, `O=C1CSc2ccc(N3C[C@@H](CNC[C@@H]4Cc5cccc6ncc(=O)n4c56)OC3=O)cc2N1` [Example 30, (S)-5-({[(R)-2-oxo-3-(3-oxo-3,4-dihydro-2H-benzo[1,4]thiazin-6-yl)oxazolidin-5-ylmethyl]-amino}-methyl)-5,6-dihydro-pyrrolo[1,2,3-de]quinoxalin-3-one] came in with an MIC of 0.125 µg/mL (≈ 0.27 µM).

Staying with this experiment, now noted: microdilution method.
As to `O=C1CSc2ccc(N3C[C@@H](CCNC[C@@H]4Cc5c(F)ccc6ccc(=O)n4c56)OC3=O)cc2N1` [Example 17, (S)-9-fluoro-2-({2-[(R)-2-oxo-3-(3-oxo-3,4-dihydro-2H-benzo[1,4]thiazin-6-yl)-oxazolidin-5-yl]-ethylamino}-methyl)-1,2-dihydro-1.5 pyrrolo[3,2,1-ij]quinolin-4-one], the “MIC M. catarrhalis A894” value is “≦0.063 mg/l”.
